# Test results reported in US20110214196A1, “DEVELOPMENT OF HERBICIDE-RESISTANT GRASS SPECIES” (University of Georgia Research Foundation, priority 2008, published 2011).
# Key:
# [1] = system: callus tissue generated from the variety 'Seaspray'; assay: Callus growth dose response to sethoxydim; assay type: cell-based, seashore paspalum (Paspalum vaginatum); conditions: growth averaged over three consecutive 3-week subcultures
# Method: The dose response of paspalum tissue in culture to sethoxydim rate was determined using callus tissue generated from the variety ‘Seaspray’ as a model cultivar. Effect of sethoxydim concentration on callus growth was determined by placing callus tissue from ‘Seaspray’ on MS/B5 medium (Murashige and Skoog. 1962. supra; Gamborg et al. 1968. supra) containing 2 mg/L 2-4,D and one of eight concentrations of sethoxydim. Herbicide rates were replicated 6 times and included concentrations of 0, 2.5, 5, 7.5, 10, 25, 50, and 100 μM sethoxydim. Sethoxydim was diluted in methanol and added after the autoclaved medium was cooled to approximately 55° C. (in order to prevent loss of activity from heat degradation). The medium was protected from photo-degradation by wrapping containers in aluminum foil prior to storage.
# To measure callus growth, 0.5 gram of callus tissue was weighed, separated into nine equal pieces and placed in a 3×3 pattern on the solid medium of each plate. Six replicate plates for each of the eight sethoxydim concentrations was distributed on a rack in a growth room in a completely randomized design. At 21 days after plating, the tissue from each plate was weighed and recorded. For subculture, 0.5 gram from each plate was obtained for the next growth period. This process was continued for nine weeks, providing three growth measurements for each plate. […]
# [2] = system: sethoxydim-resistant Line A; assay: Whole plant greenhouse dose-response, Poast herbicide (Example 9); assay type: in vivo, seashore paspalum (Paspalum vaginatum)
# From the text: (§1) A second greenhouse experiment was initiated to evaluate SR plants regenerated from a second sethoxydim-resistant cell line, Line B, for sethoxidim resistance at the whole plant level. In the previous experiment (Example 8), minor injury occurred on Line A at higher concentrations of Segment™ sethoxydim herbicide. These injury symptoms were more indicative of surfactant injury rather than sethoxydim injury. […] Plants were transplanted to Cone-tainers™ measuring 4×14 cm and tapering to 1 cm (Stuewe and Sons Inc., Corvallis, Oreg.) containing a 1:1 mix of Fafard® 3B mix and sand and placed on benches under sodium lights in a greenhouse with a 16-h photoperiod maintained at 27/32° C. day/night for approximately two weeks prior to application of herbicide treatments.
# (§2) Each of the four genotypes (Line A, Line B, PT and TCC) were treated with 0, 50, 100, 200, 400, 800, 1600, 3200 and 6400 g ai ha^−1 rates of sethoxydim using Poast™ herbicide (BASF Corp., Florham Park, N.J.). All herbicide rates were applied at a spray volume of 1871 ha^−1 in an experimental spray chamber, and after drying, the plants were returned to the greenhouse bench and maintained under the conditions described above. Visual estimates of crop injury were recorded at 16, 21, and 28 d after treatment (DAT) using a scale of 0 to 100, where 0 equals no injury and 100 equals complete death. The experiment was a four by nine factorial with four genotypes and nine herbicide rates. Treatments were arranged in a randomized complete block design. Four replications were used for all four genotypes. Data were first analyzed using a two-way analysis of variance (SAS, 2008) and subsequently analyzed within herbicide rate. Differences among genotype means at each herbicide rate were determined using Fisher's Least Significant Difference (LSD).
# [3] = system: Mauna Kea line regenerated from tissue culture (TCC); assay: as above; assay type: in vivo, seashore paspalum (Paspalum vaginatum); conditions: for injury score: TCC
# From the text: as §1, §2
# [4] = system: sethoxydim-resistant Line B; assay: as above; assay type: in vivo, seashore paspalum (Paspalum vaginatum)
# From the text: as §1, §2
# [5] = system: original parental line, Mauna Kea (PT); assay: as above; assay type: in vivo, seashore paspalum (Paspalum vaginatum)
# From the text: as §1, §2
# [6] = all rates up to 6400 g ai ha^−1
# [7] = at rates of 400 g ai ha^−1, scale of 0 to 100
# [8] = at rates of 1600 g ai ha^−1 or more
structure (smiles),measurement,setting,value
"CCC/C(=N\OCC)C1=C(O)CC(CC(C)SCC)CC1=O (centres unmarked) [sethoxydim, 2-[1-(ethoxyimino)-butyl]-5-[2-(ethylthio)propyl]-3-hydroxy-2-cylohexen-1-one]",lowest herbicide rate to totally inhibit callus growth,[1],7.5 µM
same,LD50,[2],> 6400 g ai ha^−1
same,maximum injury score observed,[2]; [6],less than 20%
same,LD50,[3]; TC,782 g ai ha^−1
same,injury score,[3]; [7],≥ 27
same,injury score,[3]; [8],≥ 80%
same,LD50,[4],> 6400 g ai ha^−1
same,maximum injury score observed,[4]; [6],less than 20%
same,LD50,[5],720 g ai ha^−1
same,injury score,[5]; [7],≥ 27
same,injury score,[5]; [8],≥ 80%
